How the values were obtained:
[1] = test system: barnyard grass; test: Test Example 5: herbicidal effect by foliage application, plastic box (Table 20, symbol H); format: in vivo, barnyard grass (Echinochloa crus-galli); details: amount of applied herbicide 320 g/ha; foliage application after 14-day growth; evaluated three weeks after application
Method in brief: (§1)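 Plants sown in sterilized diluvial soil and grown 14 days in a greenhouse at 25° C to 30° C, then sprayed on the foliage with the compound's emulsion diluted in water to a predetermined herbicide amount. Injury to weeds and crops scored three weeks after application on a visual rating scale.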

[2] = test system: blackgrass; test: Test Example 5: herbicidal effect by foliage application, plastic box (Table 20, symbol J); format: in vivo, blackgrass (Alopecurus myosuroides); details: amount of applied herbicide 320 g/ha; foliage application after 14-day growth; evaluated three weeks after application
Method in brief: as §1

[3] = test system: southern crabgrass; test: Test Example 4: herbicidal effect by soil treatment (Table 19, symbol F); format: in vivo, southern crabgrass (Digitaria ciliaris); details: amount of applied herbicide 320 g/ha
Method in brief: (§2)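 Seeds were sown in sterilized diluvial soil and covered with about 1.5 cm of soil. An emulsion formulation diluted with water to a predetermined herbicide amount was sprayed evenly onto the soil surface. Plants grew in a greenhouse at 25° C. to 30° C., and the effect was scored three weeks after application using criteria from an earlier test.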

[4] = test system: Italian ryegrass; test: Test Example 5: herbicidal effect by foliage application, plastic box (Table 20, symbol K); format: in vivo, Italian ryegrass (Lolium multiflorum); details: amount of applied herbicide 320 g/ha; foliage application after 14-day growth; evaluated three weeks after application
Method in brief: as §1

[5] = test system: persian speedwell; test: Test Example 5: herbicidal effect by foliage application, plastic box (Table 20, symbol R); format: in vivo, Persian speedwell (Veronica persica); details: amount of applied herbicide 320 g/ha; foliage application after 14-day growth; evaluated three weeks after application
Method in brief: as §1

[6] = test system: southern crabgrass; test: Test Example 5: herbicidal effect by foliage application, plastic box (Table 20, symbol F); format: in vivo, southern crabgrass (Digitaria ciliaris); details: amount of applied herbicide 320 g/ha; foliage application after 14-day growth; evaluated three weeks after application
Method in brief: as §1

[7] = test system: windgrass; test: Test Example 5: herbicidal effect by foliage application, plastic box (Table 20, symbol L); format: in vivo, windgrass (Apera spica-venti); details: amount of applied herbicide 320 g/ha; foliage application after 14-day growth; evaluated three weeks after application
Method in brief: as §1

[8] = test system: barnyard grass; test: Test Example 4: herbicidal effect by soil treatment (Table 19, symbol H); format: in vivo, barnyard grass (Echinochloa crus-galli); details: amount of applied herbicide 320 g/ha
Method in brief: as §2

[9] = test system: rice flat sedge; test: Test Example 3: herbicidal effect by foliage application, Wagner pot (Table 18, symbol E); format: in vivo, rice flat sedge (Cyperus iria); details: 320 g/ha
Method in brief: (§3)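 Plants were sown in alluvial soil held under 0.1–0.5 cm standing water and grown 14 days in a greenhouse at 25–30 °C. An emulsifiable formulation, water-diluted to the set dose, was then sprayed onto the foliage, and effects were scored three weeks later using previously defined criteria.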

[10] = test system: wild oat; test: Test Example 4: herbicidal effect by soil treatment (Table 19, symbol I); format: in vivo, wild oat (Avena fatua); details: amount of applied herbicide 320 g/ha
Method in brief: as §2

[11] = test system: velvetleaf; test: Test Example 4: herbicidal effect by soil treatment (Table 19, symbol M); format: in vivo, velvetleaf (Abutilon theophrasti); details: amount of applied herbicide 320 g/ha
Method in brief: as §2

[12] = test system: chickweed; test: Test Example 5: herbicidal effect by foliage application, plastic box (Table 20, symbol P); format: in vivo, common chickweed (Stellaria media); details: amount of applied herbicide 320 g/ha; foliage application after 14-day growth; evaluated three weeks after application
Method in brief: as §1

[13] = test system: redroot pigweed; test: Test Example 5: herbicidal effect by foliage application, plastic box (Table 20, symbol N); format: in vivo, redroot pigweed (Amaranthus retroflexus); details: amount of applied herbicide 320 g/ha; foliage application after 14-day growth; evaluated three weeks after application
Method in brief: as §1

[14] = test system: chickweed; test: Test Example 4: herbicidal effect by soil treatment (Table 19, symbol P); format: in vivo, common chickweed (Stellaria media); details: amount of applied herbicide 320 g/ha
Method in brief: as §2

[15] = test system: green foxtail; test: Test Example 4: herbicidal effect by soil treatment (Table 19, symbol G); format: in vivo, green foxtail (Setaria viridis); details: amount of applied herbicide 320 g/ha
Method in brief: as §2

[16] = test system: Italian ryegrass; test: Test Example 4: herbicidal effect by soil treatment (Table 19, symbol K); format: in vivo, Italian ryegrass (Lolium multiflorum); details: amount of applied herbicide 320 g/ha
Method in brief: as §2

[17] = test system: blackgrass; test: Test Example 4: herbicidal effect by soil treatment (Table 19, symbol J); format: in vivo, blackgrass (Alopecurus myosuroides); details: amount of applied herbicide 320 g/ha
Method in brief: as §2

[18] = test system: persian speedwell; test: Test Example 4: herbicidal effect by soil treatment (Table 19, symbol R); format: in vivo, Persian speedwell (Veronica persica); details: amount of applied herbicide 320 g/ha
Method in brief: as §2

[19] = test system: wild oat; test: Test Example 5: herbicidal effect by foliage application, plastic box (Table 20, symbol I); format: in vivo, wild oat (Avena fatua); details: amount of applied herbicide 320 g/ha; foliage application after 14-day growth; evaluated three weeks after application
Method in brief: as §1

[20] = test system: redroot pigweed; test: Test Example 4: herbicidal effect by soil treatment (Table 19, symbol N); format: in vivo, redroot pigweed (Amaranthus retroflexus); details: amount of applied herbicide 320 g/ha
Method in brief: as §2

[21] = test system: windgrass; test: Test Example 4: herbicidal effect by soil treatment (Table 19, symbol L); format: in vivo, windgrass (Apera spica-venti); details: amount of applied herbicide 320 g/ha
Method in brief: as §2

[22] = test system: lambsquarters; test: Test Example 5: herbicidal effect by foliage application, plastic box (Table 20, symbol O); format: in vivo, lambsquarters (Chenopodium album); details: amount of applied herbicide 320 g/ha; foliage application after 14-day growth; evaluated three weeks after application
Method in brief: as §1

[23] = test system: lambsquarters; test: Test Example 4: herbicidal effect by soil treatment (Table 19, symbol O); format: in vivo, lambsquarters (Chenopodium album); details: amount of applied herbicide 320 g/ha
Method in brief: as §2

[24] = test system: barnyard grass; test: Test Example 3: herbicidal effect by foliage application, Wagner pot (Table 18, symbol H); format: in vivo, barnyard grass (Echinochloa crus-galli); details: 320 g/ha
Method in brief: as §3

[25] = test system: green foxtail; test: Test Example 5: herbicidal effect by foliage application, plastic box (Table 20, symbol G); format: in vivo, green foxtail (Setaria viridis); details: amount of applied herbicide 320 g/ha; foliage application after 14-day growth; evaluated three weeks after application
Method in brief: as §1

[26] = test system: Chinese sprangletop; test: Test Example 3: herbicidal effect by foliage application, Wagner pot (Table 18, symbol D); format: in vivo, chinese sprangletop (Leptochloa chinensis); details: 320 g/ha
Method in brief: as §3

[27] = test system: velvetleaf; test: Test Example 5: herbicidal effect by foliage application, plastic box (Table 20, symbol M); format: in vivo, velvetleaf (Abutilon theophrasti); details: amount of applied herbicide 320 g/ha; foliage application after 14-day growth; evaluated three weeks after application
Method in brief: as §1

## Cc1nn(C)c(=O)c(-c2c(-c3ccc(C(F)(F)F)cc3)sc3cc(F)c(F)cc23)c1O [5-007]
[1]
  Herbicidal effect by foliage application, H: barnyard grass: 3 (Herbicidal rate of 40% or more and less than 70%)
[2]
  Herbicidal effect by foliage application, J: blackgrass: 0 (Herbicidal rate of 5% or less (almost no effect))
[3]
  F: southern crabgrass, herbicidal effect grade: 0 (Herbicidal rate of 5% or less (almost no effect))
[4]
  Herbicidal effect by foliage application, K: Italian ryegrass: 0 (Herbicidal rate of 5% or less (almost no effect))
[5]
  Herbicidal effect by foliage application, R: persian speedwell: 5 (Herbicidal rate of 90% or more (almost completely withered))
[6]
  Herbicidal effect by foliage application, F: southern crabgrass: 5 (Herbicidal rate of 90% or more (almost completely withered))
[7]
  Herbicidal effect by foliage application, L: windgrass: 4 (Herbicidal rate of 70% or more and less than 90%)
[8]
  H: barnyard grass, herbicidal effect grade: 0 (Herbicidal rate of 5% or less (almost no effect))
[9]
  herbicidal effect on rice flat sedge (E): 2 (Herbicidal rate of 20% or more and less than 40%)
[10]
  I: wild oat, herbicidal effect grade: 0 (Herbicidal rate of 5% or less (almost no effect))
[11]
  M: velvetleaf, herbicidal effect grade: 0 (Herbicidal rate of 5% or less (almost no effect))
[12]
  Herbicidal effect by foliage application, P: chickweed: 5 (Herbicidal rate of 90% or more (almost completely withered))
[13]
  Herbicidal effect by foliage application, N: redroot pigweed: 5 (Herbicidal rate of 90% or more (almost completely withered))
[14]
  P: chickweed, herbicidal effect grade: 3 (Herbicidal rate of 40% or more and less than 70%)
[15]
  G: green foxtail, herbicidal effect grade: 3 (Herbicidal rate of 40% or more and less than 70%)
[16]
  K: Italian ryegrass, herbicidal effect grade: 0 (Herbicidal rate of 5% or less (almost no effect))
[17]
  J: blackgrass, herbicidal effect grade: 0 (Herbicidal rate of 5% or less (almost no effect))
[18]
  R: persian speedwell, herbicidal effect grade: 3 (Herbicidal rate of 40% or more and less than 70%)
[19]
  Herbicidal effect by foliage application, I: wild oat: 2 (Herbicidal rate of 20% or more and less than 40%)
[20]
  N: redroot pigweed, herbicidal effect grade: 3 (Herbicidal rate of 40% or more and less than 70%)
[21]
  L: windgrass, herbicidal effect grade: 0 (Herbicidal rate of 5% or less (almost no effect))
[22]
  Herbicidal effect by foliage application, O: lambsquarters: 5 (Herbicidal rate of 90% or more (almost completely withered))
[23]
  O: lambsquarters, herbicidal effect grade: 1 (Herbicidal rate of 5% or more and less than 20%)
[24]
  herbicidal effect on barnyard grass (H): 4 (Herbicidal rate of 70% or more and less than 90%)
[25]
  Herbicidal effect by foliage application, G: green foxtail: 4 (Herbicidal rate of 70% or more and less than 90%)
[26]
  herbicidal effect on Chinese sprangletop (D): 1 (Herbicidal rate of 5% or more and less than 20%)
[27]
  Herbicidal effect by foliage application, M: velvetleaf: 3 (Herbicidal rate of 40% or more and less than 70%)

From US20230085307A1, “PYRIDAZINONE COMPOUND AND HERBICIDE” (NISSAN CHEMICAL CORPORATION, priority 2019, published 2023)
